Legend:
[1] = Dose normalised AUC in rat after po administration; settings: in vivo
[2] = Dose normalised AUC in monkey after po administration; settings: macaca, in vivo
[3] = Dose normalised AUC in human after po administration; settings: in vivo
[4] = Dose normalised AUC in dog after po administration; settings: in vivo

Row | Compound | DNAUC [1] [kg·min/L] | DNAUC [2] [kg·min/L] | DNAUC [3] [kg·min/L] | DNAUC [4] [kg·min/L]
1 | CC1(C)O[C@@H]2C[C@H]3[C@@H]4C[C@H](F)C5=CC(=O)C=C[C@]5(C)[C@H]4[C@@H](O)C[C@]3(C)[C@]2(C(=O)CO)O1 [FLUNISOLIDE] | 107.25 | 2.1 | 16.42 | 63.58
2 | Cc1cccc(C)c1NC(=O)NCCCNC(C)C [RECAINAM] | 6.3 | 48 | 98.57 | 72.4
3 | O=C(c1ccccc1)c1ccc2n1CCC2C(=O)O (centres undefined) [KETOROLAC] | 285 | 1912.26 | 1256.47 | 1352.94
4 | CC(C)n1c(/C=C/C(O)CC(O)CC(=O)O)c(-c2ccc(F)cc2)c2ccccc21 (centres undefined) [FLUVASTATIN] | 195 | 5.37 | 49.3 | 82.11
5 | CN(C)CCCC1(c2ccc(F)cc2)OCc2cc(C#N)ccc21 (centres undefined) [CITALOPRAM] | 5.88 | 9.85 | 200 | 8.75
6 | CC(C)NCC(O)COc1cccc2ccccc12 (centres undefined) [PROPRANOLOL] | 37.8 | 1.32 | 17.33 | 8.32
7 | COc1ccc(C(CN(C)C)C2(O)CCCCC2)cc1 (centres undefined) [VENLAFAXINE] | 1.97 | 1.8 | 1 | 48
8 | O=C1CN=C(c2ccccc2Cl)c2cc([N+](=O)[O-])ccc2N1 [CLONAZEPAM] | 3.47 | 36.8 | 590 | 24
9 | CCN[C@@H](C)Cc1cccc(C(F)(F)F)c1 [DEXFENFLURAMINE] | 7.2 | 4.38 | 80 | 6.72
10 | C#C[C@]1(O)CC[C@H]2[C@@H]3CCc4cc(O)ccc4[C@H]3CC[C@@]21C [ETHINYL ESTRADIOL] | 0.46 | 0.68 | 75.45 | 4.5
11 | CC(=O)NCCOC(=O)C(Oc1cccc(C(F)(F)F)c1)c1ccc(Cl)cc1 (centres undefined) [HALOFENATE] | 9183.98 | 3918.28 | 15037.59 | 390.13

From ChEMBL document CHEMBL1614631, “Comparative evaluation of oral systemic exposure of 56 xenobiotics in rat, dog, monkey and human” (Xenobiotica, 2005)
